Source: patent publication US20030118571A1, “Oral administration of lactobacillus for the maintenance of health in women during pregnancy and at other life stages, to reduce the risk of urogenital diseases” (priority 1999, published 2003)
Like-named read-outs stand apart in the source and are kept apart here. No end group written: not given here.

Columns and labels:
[1] = system: E. coli; experiment: MIC of peptides against uropathogenic microorganisms; type: cell-based, Escherichia coli HU734; conditions: bactericidal if less than 0.1% of original bacteria remained viable
[2] = system: Ps. aeruginosa; experiment: as above; type: cell-based, Pseudomonas aeruginosa AK1; conditions: P. aeruginosa; bactericidal if less than 0.1% of original bacteria remained viable
[3] = system: Kl. pneumoniae; experiment: as above; type: cell-based; conditions: K. pneumoniae; bactericidal if less than 0.1% of original bacteria remained viable
[4] = system: Staph. epidermidis; experiment: as above; type: cell-based, Staphylococcus epidermidis 1938
[5] = system: L. rhamnosus GR-1
Procedure: (§1) Mean values obtained from three independent experiments are shown.
(§2) Action of the peptide was considered bactericidal if less than 0.1% of original number of bacteria remained viable following the treatment. Resistant organisms were also plated from the 100 μmol 1^−1 well to confirm presence of any inhibition.

[6] = system: L. rhamnosus 81
Procedure: as §1, §2

[7] = system: L. plantarum RC-20
Procedure: as §1, §2

[8] = system: L. fermentum RC-14
Procedure: as §1, §2

[9] = system: L. fermentum B-54
Procedure: as §1, §2

Substance | mode of action [1] | mode of action [2] | mode of action [3] | MIC [4] [μmol 1^−1 M] | susceptibility of strain to peptide ([5]; L. rhamnosus GR-1, highest concentration 100 μmol 1^−1) | susceptibility of strain to peptide ([6]; L. rhamnosus 81, highest concentration 100 μmol 1^−1) | susceptibility of strain to peptide ([7]; L. plantarum RC-20, highest concentration 100 μmol 1^−1) | susceptibility of strain to peptide ([8]; L. fermentum RC-14, highest concentration 100 μmol 1^−1) | mode of action ([9]; L. fermentum B-54) | MIC ([9]; L. fermentum B-54 as indicator organism) [µM] | MIC [5] [µM] | MIC [6] [µM] | MIC [7] [µM] | MIC [8] [µM] | MIC [9] [µM]
FALL-39 (FALLGDFFRKSKEKIGKEFKRIVQRIKDFLRNLVPRTES; Antibacterial peptide FALL-39; UniProt P49913 132-170, looked up) | bactericidal | bacteriostatic | bacteriostatic | >100 | resistant | resistant | resistant | resistant | bacteriostatically | 100 |  |  |  |  | 
SWLSKTAKKLENSAKKRISEGIAIAIQGGPR [Cecropin P1] | bacteriocidally | bacteriocidally | bacteriocidally | >100 |  |  |  |  |  |  | > 100 | > 100 | > 100 | > 100 | > 100
